Assay: Weekly hematology (CBC with differential); for Red Blood Cells HCT: test concentration or dose not given here; for White Blood Cells BASO: test concentration or dose not given here; for White Blood Cells EOS: test concentration or dose not given here; for White Blood Cells LYMP + MONO: test concentration or dose not given here; for White Blood Cells NEUT: test concentration or dose not given here; for White Blood Cells WBC: test concentration or dose not given here
Assay type: in vivo, Male Ross x Ross broiler chickens

## Candida utilis phosphoglucomannan [CUP]
Day 3, dose group 1
  Others Het/Poly: 14.67%
  Red Blood Cells HCT: 30.60%
  White Blood Cells BASO: 193.33 X/uL
  White Blood Cells EOS: 0.00 X/uL
  White Blood Cells LYMP + MONO: 2956.67 X/uL
  White Blood Cells NEUT: 516.67 X/uL
  White Blood Cells WBC: 3670 µL⁻¹
Day 3, dose group 3
  Others Het/Poly: 20.33%
  Red Blood Cells HCT: 28.67%
  White Blood Cells BASO: 78.33 X/uL
  White Blood Cells EOS: 6.67 X/uL
  White Blood Cells LYMP + MONO: 2595.00 X/uL
  White Blood Cells NEUT: 820.00 X/uL
  White Blood Cells WBC: 3500 µL⁻¹
Day 3, dose group 20
  Others Het/Poly: 17.67%
  Red Blood Cells HCT: 27.00%
  White Blood Cells BASO: 48.33 X/uL
  White Blood Cells EOS: 0.00 X/uL
  White Blood Cells LYMP + MONO: 2828.33 X/uL
  White Blood Cells NEUT: 623.33 X/uL
  White Blood Cells WBC: 3500 µL⁻¹
Day 7, dose group 1
  Others Het/Poly: 21.00%
  White Blood Cells BASO: 85.00 X/uL
  White Blood Cells EOS: 0.00 X/uL
  White Blood Cells LYMP + MONO: 4665.00 X/uL
  White Blood Cells NEUT: 1250.00 X/uL
  White Blood Cells WBC: 6000 µL⁻¹
Day 7, dose group 3
  Others Het/Poly: 21.33%
  White Blood Cells BASO: 193.33 X/uL
  White Blood Cells EOS: 0.00 X/uL
  White Blood Cells LYMP + MONO: 4253.33 X/uL
  White Blood Cells NEUT: 1220.00 X/uL
  White Blood Cells WBC: 5670 µL⁻¹
Day 7, dose group 20
  Others Het/Poly: 25.67%
  White Blood Cells BASO: 113.33 X/uL
  White Blood Cells EOS: 0.00 X/uL
  White Blood Cells LYMP + MONO: 4050.00 X/uL
  White Blood Cells NEUT: 1503.33 X/uL
  White Blood Cells WBC: 5670 µL⁻¹
Day 15, dose group 1
  Others Het/Poly: 41.33%
  Red Blood Cells HCT: 27.33%
  White Blood Cells BASO: 146.67 X/uL
  White Blood Cells EOS: 0.00 X/uL
  White Blood Cells LYMP + MONO: 4346.67 X/uL
  White Blood Cells NEUT: 3506.67 X/uL
  White Blood Cells WBC: 8000 µL⁻¹
Day 15, dose group 3
  Others Het/Poly: 39.00%
  Red Blood Cells HCT: 31.00%
  White Blood Cells BASO: 153.33 X/uL
  White Blood Cells EOS: 0.00 X/uL
  White Blood Cells LYMP + MONO: 4796.67 X/uL
  White Blood Cells NEUT: 3383.33 X/uL
  White Blood Cells WBC: 8330 µL⁻¹
Day 15, dose group 20
  Others Het/Poly: 45.33%
  Red Blood Cells HCT: 22.00%
  White Blood Cells BASO: 113.33 X/uL
  White Blood Cells EOS: 0.00 X/uL
  White Blood Cells LYMP + MONO: 3710.00 X/uL
  White Blood Cells NEUT: 2843.33 X/uL
  White Blood Cells WBC: 6670 µL⁻¹
Day 21, dose group 1
  Others Het/Poly: 29.00%
  Red Blood Cells HCT: 30.00%
  White Blood Cells BASO: 240.00 X/uL
  White Blood Cells EOS: 0.00 X/uL
  White Blood Cells LYMP + MONO: 5440.00 X/uL
  White Blood Cells NEUT: 2320.00 X/uL
  White Blood Cells WBC: 8000 µL⁻¹
Day 21, dose group 3
  Others Het/Poly: 26.00%
  Red Blood Cells HCT: 30.33%
  White Blood Cells BASO: 250.00 X/uL
  White Blood Cells EOS: 0.00 X/uL
  White Blood Cells LYMP + MONO: 6640.00 X/uL
  White Blood Cells NEUT: 2443.33 X/uL
  White Blood Cells WBC: 9330 µL⁻¹
Day 21, dose group 20
  Others Het/Poly: 32.67%
  Red Blood Cells HCT: 31.00%
  White Blood Cells BASO: 306.67 X/uL
  White Blood Cells EOS: 0.00 X/uL
  White Blood Cells LYMP + MONO: 6746.67 X/uL
  White Blood Cells NEUT: 3280.00 X/uL
  White Blood Cells WBC: 10330 µL⁻¹
Day 28, dose group 1
  Others Het/Poly: 42.00%
  Red Blood Cells HCT: 29.33%
  White Blood Cells BASO: 446.67 X/uL
  White Blood Cells EOS: 0.00 X/uL
  White Blood Cells LYMP + MONO: 4546.67 X/uL
  White Blood Cells NEUT: 3673.33 X/uL
  White Blood Cells WBC: 8670 µL⁻¹
Day 28, dose group 3
  Others Het/Poly: 44.67%
  Red Blood Cells HCT: 30.00%
  White Blood Cells BASO: 560.00 X/uL
  White Blood Cells EOS: 0.00 X/uL
  White Blood Cells LYMP + MONO: 3323.33 X/uL
  White Blood Cells NEUT: 3450.00 X/uL
  White Blood Cells WBC: 7330 µL⁻¹
Day 28, dose group 20
  Others Het/Poly: 45.00%
  Red Blood Cells HCT: 33.67%
  White Blood Cells BASO: 410.00 X/uL
  White Blood Cells EOS: 0.00 X/uL
  White Blood Cells LYMP + MONO: 4413.33 X/uL
  White Blood Cells NEUT: 3843.33 X/uL
  White Blood Cells WBC: 8670 µL⁻¹
Day 35, dose group 1
  Others Het/Poly: 31.33%
  Red Blood Cells HCT: 29.67%
  White Blood Cells BASO: 253.33 X/uL
  White Blood Cells EOS: 0.00 X/uL
  White Blood Cells LYMP + MONO: 5046.67 X/uL
  White Blood Cells NEUT: 2700.00 X/uL
  White Blood Cells WBC: 8000 µL⁻¹
Day 35, dose group 3
  Others Het/Poly: 39.67%
  Red Blood Cells HCT: 31.67%
  White Blood Cells BASO: 310.00 X/uL
  White Blood Cells EOS: 0.00 X/uL
  White Blood Cells LYMP + MONO: 4876.67 X/uL
  White Blood Cells NEUT: 3146.67 X/uL
  White Blood Cells WBC: 8330 µL⁻¹
Day 35, dose group 20
  Others Het/Poly: 31.00%
  Red Blood Cells HCT: 28.67%
  White Blood Cells BASO: 350.00 X/uL
  White Blood Cells EOS: 0.00 X/uL
  White Blood Cells LYMP + MONO: 5230.00 X/uL
  White Blood Cells NEUT: 2420.00 X/uL
  White Blood Cells WBC: 8000 µL⁻¹
Day 42, dose group 1
  Others Het/Poly: 50.00%
  Red Blood Cells HCT: 27.67%
  White Blood Cells BASO: 353.33 X/uL
  White Blood Cells EOS: 106.67 X/uL
  White Blood Cells LYMP + MONO: 3913.33 X/uL
  White Blood Cells NEUT: 4626.67 X/uL
  White Blood Cells WBC: 9000 µL⁻¹
Day 42, dose group 3
  Others Het/Poly: 34.33%
  Red Blood Cells HCT: 27.50%
  White Blood Cells BASO: 710.00 X/uL
  White Blood Cells EOS: 0.00 X/uL
  White Blood Cells LYMP + MONO: 4816.67 X/uL
  White Blood Cells NEUT: 2806.67 X/uL
  White Blood Cells WBC: 8330 µL⁻¹
Day 42, dose group 20
  Others Het/Poly: 43.00%
  Red Blood Cells HCT: 34.67%
  White Blood Cells BASO: 360.00 X/uL
  White Blood Cells EOS: 0.00 X/uL
  White Blood Cells LYMP + MONO: 4960.00 X/uL
  White Blood Cells NEUT: 4013.33 X/uL
  White Blood Cells WBC: 9330 µL⁻¹
Day 49, dose group 1
  Others Het/Poly: 32.00%
  Red Blood Cells HCT: 30.00%
  White Blood Cells BASO: 370.00 X/uL
  White Blood Cells EOS: 0.00 X/uL
  White Blood Cells LYMP + MONO: 5266.67 X/uL
  White Blood Cells NEUT: 2696.67 X/uL
  White Blood Cells WBC: 8330 µL⁻¹
Day 49, dose group 3
  Others Het/Poly: 31.33%
  Red Blood Cells HCT: 29.67%
  White Blood Cells BASO: 263.33 X/uL
  White Blood Cells EOS: 0.00 X/uL
  White Blood Cells LYMP + MONO: 6606.67 X/uL
  White Blood Cells NEUT: 3130.00 X/uL
  White Blood Cells WBC: 10000 µL⁻¹
Day 49, dose group 20
  Others Het/Poly: 30.33%
  Red Blood Cells HCT: 31.33%
  White Blood Cells BASO: 236.67 X/uL
  White Blood Cells EOS: 0.00 X/uL
  White Blood Cells LYMP + MONO: 5846.67 X/uL
  White Blood Cells NEUT: 2583.33 X/uL
  White Blood Cells WBC: 8670 µL⁻¹

From patent US20070036839A1, “Phosphorylated glucomannane polysaccharides containing 1-6 and 1-2 linkages increase weight gain in poultry” (priority 2005, published 2007)
